According to US20060198882A1, “Stable liposomes or micelles comprising a sphinolipid and a peg-lipopolymer” (priority 2003, published 2006):
Where “and” joins values, the source holds several entries; their conditions need not be identical. Equal entries are not always repeated.

Experiments:
[1] = Partition in the two phases of the Dole system; format: physicochemical; conditions: for % of lipid in heptane-rich upper phase / % of lipid in isopropanol/water lower phase: Dole two phase system
Experimental: The distribution of the C18 sphingosine-based ceramides with different acyl chain lengths and of DMS between the polar phase and respectively less polar phase (as defined below) of the Dole two phase system was determined. […] The different ceramides included: short (C2 Cer and C4 Cer), medium (C6 Cer and C8 Cer), long (C16 Cer). […] In: Liposome Technology 2nd Edn., G Gregoriadis (Ed.) CRC Press, Boca Raton, 1993, vol. 1, pp: 527-616]. The amount of each of the lipids used in each of the two phases was measured by thin-layer chromatography (TLC). For ceramide quantification TLC was developed in a solvent system containing chloroform/methanol (95:5 v/v). For DMS quantification TLC was developed in a solvent system containing chloroform/methanol/ammonia (89/9/2 v/v). Further, the TLC plate was sprayed with Copper sulfate reagent composed of 100 g anhydrous copper sulfate containing 80 ml of phosphoric acid (85%), %) dissolved in 600 ml of DDW. Copper sulphate reagent was applied to the plates by spraying, then heated and lipids appeared as dark brown spot. […] Quantity of ceramides in each phase was calculated from a standard curve of appropriate ceramide. […] (1993)Supra]. The distribution between the two Dole system phases was determined by the equation (as exemplified for ceramide): [formula] [formula] Where Kp denotes the partition coefficient of a given lipid or amphiphile referred to in the equation as lipid; Cer denotes ceramide; up is an abbreviation for the heptane rich low polarity upper phase and lp is an abbreviation for the polar isopropanol water rich lower phase.

[2] = Conversion of C6Cer in cell derived or fresh medium; format: in vitro ADME
[3] = Injection of ceramide dispersions into mice (tolerance, weight); conditions: for decrease from initial weight: mouse, in vivo
Experimental: […] of C2Cer and C6Cer dispersions in ethanol or in ethanol:dodecane (98:2) (required final blood concentration of about 3.3%) were injected to the Balb/c female mice (8 week old).
In addition, 1 μmole/mouse of C2Cer and C6Cer dispersions in ethanol or in ethanol:dodecane (98:2) in isotonic BSA solution (BSA 2 mM, NaCl 112 mM, pH 7.4) was injected in order to reach the final ethanol or ethanol:dodecane blood concentration of about 3.3%. For the preparation of ceramide-BSA complexes the 33 μl of 30 mM stock of C2Cer and C6Cer dispersions were incubated for 30 min at 30° C. with 417 μl of 2 mM BSA solution in order to reach the ceramide/BSA mole ratio of 1/0.8, respectively [Hannun, Supra, 2000].

[4] = Critical aggregation concentration (CAC) by surface tension; format: physicochemical; conditions: pure water containing 0.3% ethanol, room temperature
Experimental: The critical aggregation concentration (CAC) of the ceramides is the concentration at which aggregation of monomers to an amphiphile assembly occurs. CAC of the C2, C6, and C16 ceramides was determined in filtered pure water containing 0.3% ethanol by measuring at room temperature surface tension as a function of ceramide concentration. The measurements were done using μThrougs Kibron System (Helsinki, Finland) which determine the surface tension at the air/water interface. The measurement at each concentration was repeated until a constant value of surface tension was reached [Zuidam, N. and Barenholz, Y., Supra (1997)]

[5] = tested on: caspase-3 activity in OV-1063 tumor cells; assay: EnzChek Caspase-3 assay; format: cell-based, human; conditions: 16 hr, IC50 values
Text: Biochemically, apoptosis was verified by the EnzChek™ Caspase-3 Assay Kit (Molecular Probes). This allows the detection of apoptosis by assaying for increases in caspase-3 and other DEVD-specific protease activities (e.g., caspase-7). The basis for the assay is rhodamine 110 bis-(N-CBZ-aspartyl-L-glutamyl-L-valyl-aspartic acid amide) referred to as Z-DEVD-R110. This substrate is a bisamide derivative of rhodamine 110 (R110) containing DEVD peptides covalently linked to each of R110's amino groups. Upon enzymatic cleavage, the nonfluorescent bisamide substrate is converted to the fluorescent R110, which was quantified by a fluorescence microplate reader (Tecan) using excitation at 485±10 nm and emission at 535±10 nm. […] The AC-DEVD-inhibitor was used to confirm that the observed fluorescence signal in treated samples is due to the activity of caspase-3 protease. Both induced and control cells were then harvested and lysed. Enzyme reactions were performed in 96-well plates with 50 μg of cytosolic proteins (55 min. of incubation) and a final concentration of 25 μM Z-DEVD-R110 substrate, as described in the kit protocol.

Compound | Kp (heptane rich/isopropanol and water rich partition coefficient) [1] | % of lipid in heptane-rich upper phase [1] | % of lipid in isopropanol/water lower phase [1] | ceramide converted into C6 SPM ([2]; cell derived medium (taken from C26 cells)) | metabolic activity ([2]; fresh medium) | death of mice ([3]; ethanol:dodecane (98:2) dispersions) | decrease from initial weight [3] | CAC (critical aggregation concentration) [4] | increase in caspase-3 activity vs control, untreated cells [5]
CCCCCCCCCCCCC/C=C/[C@@H](O)[C@H](CO)NC(=O)CCCCC [C6Cer, N-hexanoyl-D-erythro-sphingosine] | 3.17 | 63% and 62.7% | 37.3% | 9% | no metabolitic activity | died during the injection | about 5% |  | 
CCCCCCCCCCCCC/C=C/[C@@H](O)[C@H](CO)NC(C)=O [C2Cer, N-Acetyl-D-erythro-sphingosine] | 0.54 | 21% and 21.2% | 79% and 78.8% |  |  |  | about 5% | 10^−6M | 
CCCCCCCCCCCCC/C=C/[C@@H](O)[C@H](CO)NC(=O)CCCCCCCCCCCCCCC [C16Cer, N-palmitoyl-D-erythro-sphingosine] | 8.21 | 89% | 11% |  |  |  |  |  | no activation
